Assay results reported in patent US8785457B2 (Cellzome Limited, priority 2009, dated 2014).
Where two headings read alike, the source gives them in different places.

Assays:
[1] = target: T1, DNA-dependent protein kinase (DNA-PK) (Homo sapiens, UniProt P78527); experiment: kinobeads assay, DNA-PK; type: binding; details: kinobeads assay
T1 construct: endogenous in cells; host or cells: Jurkat, clone E6-1 (ATCC TIB-152) cell lysate
In short: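 Competitive binding in Jurkat cell lysate (5 mg/mL protein) against beads carrying an immobilized phenylmorpholin-chromen ligand, in DP buffer pH 7.4 with NP40, DTT and NaF. Bead-bound kinases were eluted and quantified by antibody dot blot with infrared detection, and IC50 was taken from dose-response curves of a 1:3 dilution series.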

PI3 Kgamma (PI3 Kg) = target: T2, PI3 Kgamma (PI3 Kg) (Homo sapiens, UniProt P48736); experiment: kinobeads assay, PI3Kgamma; type: binding; details: kinobeads assay, Table 6; read-out: Inhibition values (IC50) PI3Kg
T2 construct: endogenous in cells; host or cells: cell lysate
In short: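 In this bead competition format, compound and immobilized phenylmorpholin-chromen ligand compete for kinases in cell lysate. Eluted captured kinases were measured by multiplexed immunodetection, and IC50 was calculated.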

[2] = Table 6, read-out: Inhibition values (IC50) DNAPK
[3] = Table 4, read-out: Inhibition values (IC50) DNA-PK

T1 sequence (P78527 whole entry): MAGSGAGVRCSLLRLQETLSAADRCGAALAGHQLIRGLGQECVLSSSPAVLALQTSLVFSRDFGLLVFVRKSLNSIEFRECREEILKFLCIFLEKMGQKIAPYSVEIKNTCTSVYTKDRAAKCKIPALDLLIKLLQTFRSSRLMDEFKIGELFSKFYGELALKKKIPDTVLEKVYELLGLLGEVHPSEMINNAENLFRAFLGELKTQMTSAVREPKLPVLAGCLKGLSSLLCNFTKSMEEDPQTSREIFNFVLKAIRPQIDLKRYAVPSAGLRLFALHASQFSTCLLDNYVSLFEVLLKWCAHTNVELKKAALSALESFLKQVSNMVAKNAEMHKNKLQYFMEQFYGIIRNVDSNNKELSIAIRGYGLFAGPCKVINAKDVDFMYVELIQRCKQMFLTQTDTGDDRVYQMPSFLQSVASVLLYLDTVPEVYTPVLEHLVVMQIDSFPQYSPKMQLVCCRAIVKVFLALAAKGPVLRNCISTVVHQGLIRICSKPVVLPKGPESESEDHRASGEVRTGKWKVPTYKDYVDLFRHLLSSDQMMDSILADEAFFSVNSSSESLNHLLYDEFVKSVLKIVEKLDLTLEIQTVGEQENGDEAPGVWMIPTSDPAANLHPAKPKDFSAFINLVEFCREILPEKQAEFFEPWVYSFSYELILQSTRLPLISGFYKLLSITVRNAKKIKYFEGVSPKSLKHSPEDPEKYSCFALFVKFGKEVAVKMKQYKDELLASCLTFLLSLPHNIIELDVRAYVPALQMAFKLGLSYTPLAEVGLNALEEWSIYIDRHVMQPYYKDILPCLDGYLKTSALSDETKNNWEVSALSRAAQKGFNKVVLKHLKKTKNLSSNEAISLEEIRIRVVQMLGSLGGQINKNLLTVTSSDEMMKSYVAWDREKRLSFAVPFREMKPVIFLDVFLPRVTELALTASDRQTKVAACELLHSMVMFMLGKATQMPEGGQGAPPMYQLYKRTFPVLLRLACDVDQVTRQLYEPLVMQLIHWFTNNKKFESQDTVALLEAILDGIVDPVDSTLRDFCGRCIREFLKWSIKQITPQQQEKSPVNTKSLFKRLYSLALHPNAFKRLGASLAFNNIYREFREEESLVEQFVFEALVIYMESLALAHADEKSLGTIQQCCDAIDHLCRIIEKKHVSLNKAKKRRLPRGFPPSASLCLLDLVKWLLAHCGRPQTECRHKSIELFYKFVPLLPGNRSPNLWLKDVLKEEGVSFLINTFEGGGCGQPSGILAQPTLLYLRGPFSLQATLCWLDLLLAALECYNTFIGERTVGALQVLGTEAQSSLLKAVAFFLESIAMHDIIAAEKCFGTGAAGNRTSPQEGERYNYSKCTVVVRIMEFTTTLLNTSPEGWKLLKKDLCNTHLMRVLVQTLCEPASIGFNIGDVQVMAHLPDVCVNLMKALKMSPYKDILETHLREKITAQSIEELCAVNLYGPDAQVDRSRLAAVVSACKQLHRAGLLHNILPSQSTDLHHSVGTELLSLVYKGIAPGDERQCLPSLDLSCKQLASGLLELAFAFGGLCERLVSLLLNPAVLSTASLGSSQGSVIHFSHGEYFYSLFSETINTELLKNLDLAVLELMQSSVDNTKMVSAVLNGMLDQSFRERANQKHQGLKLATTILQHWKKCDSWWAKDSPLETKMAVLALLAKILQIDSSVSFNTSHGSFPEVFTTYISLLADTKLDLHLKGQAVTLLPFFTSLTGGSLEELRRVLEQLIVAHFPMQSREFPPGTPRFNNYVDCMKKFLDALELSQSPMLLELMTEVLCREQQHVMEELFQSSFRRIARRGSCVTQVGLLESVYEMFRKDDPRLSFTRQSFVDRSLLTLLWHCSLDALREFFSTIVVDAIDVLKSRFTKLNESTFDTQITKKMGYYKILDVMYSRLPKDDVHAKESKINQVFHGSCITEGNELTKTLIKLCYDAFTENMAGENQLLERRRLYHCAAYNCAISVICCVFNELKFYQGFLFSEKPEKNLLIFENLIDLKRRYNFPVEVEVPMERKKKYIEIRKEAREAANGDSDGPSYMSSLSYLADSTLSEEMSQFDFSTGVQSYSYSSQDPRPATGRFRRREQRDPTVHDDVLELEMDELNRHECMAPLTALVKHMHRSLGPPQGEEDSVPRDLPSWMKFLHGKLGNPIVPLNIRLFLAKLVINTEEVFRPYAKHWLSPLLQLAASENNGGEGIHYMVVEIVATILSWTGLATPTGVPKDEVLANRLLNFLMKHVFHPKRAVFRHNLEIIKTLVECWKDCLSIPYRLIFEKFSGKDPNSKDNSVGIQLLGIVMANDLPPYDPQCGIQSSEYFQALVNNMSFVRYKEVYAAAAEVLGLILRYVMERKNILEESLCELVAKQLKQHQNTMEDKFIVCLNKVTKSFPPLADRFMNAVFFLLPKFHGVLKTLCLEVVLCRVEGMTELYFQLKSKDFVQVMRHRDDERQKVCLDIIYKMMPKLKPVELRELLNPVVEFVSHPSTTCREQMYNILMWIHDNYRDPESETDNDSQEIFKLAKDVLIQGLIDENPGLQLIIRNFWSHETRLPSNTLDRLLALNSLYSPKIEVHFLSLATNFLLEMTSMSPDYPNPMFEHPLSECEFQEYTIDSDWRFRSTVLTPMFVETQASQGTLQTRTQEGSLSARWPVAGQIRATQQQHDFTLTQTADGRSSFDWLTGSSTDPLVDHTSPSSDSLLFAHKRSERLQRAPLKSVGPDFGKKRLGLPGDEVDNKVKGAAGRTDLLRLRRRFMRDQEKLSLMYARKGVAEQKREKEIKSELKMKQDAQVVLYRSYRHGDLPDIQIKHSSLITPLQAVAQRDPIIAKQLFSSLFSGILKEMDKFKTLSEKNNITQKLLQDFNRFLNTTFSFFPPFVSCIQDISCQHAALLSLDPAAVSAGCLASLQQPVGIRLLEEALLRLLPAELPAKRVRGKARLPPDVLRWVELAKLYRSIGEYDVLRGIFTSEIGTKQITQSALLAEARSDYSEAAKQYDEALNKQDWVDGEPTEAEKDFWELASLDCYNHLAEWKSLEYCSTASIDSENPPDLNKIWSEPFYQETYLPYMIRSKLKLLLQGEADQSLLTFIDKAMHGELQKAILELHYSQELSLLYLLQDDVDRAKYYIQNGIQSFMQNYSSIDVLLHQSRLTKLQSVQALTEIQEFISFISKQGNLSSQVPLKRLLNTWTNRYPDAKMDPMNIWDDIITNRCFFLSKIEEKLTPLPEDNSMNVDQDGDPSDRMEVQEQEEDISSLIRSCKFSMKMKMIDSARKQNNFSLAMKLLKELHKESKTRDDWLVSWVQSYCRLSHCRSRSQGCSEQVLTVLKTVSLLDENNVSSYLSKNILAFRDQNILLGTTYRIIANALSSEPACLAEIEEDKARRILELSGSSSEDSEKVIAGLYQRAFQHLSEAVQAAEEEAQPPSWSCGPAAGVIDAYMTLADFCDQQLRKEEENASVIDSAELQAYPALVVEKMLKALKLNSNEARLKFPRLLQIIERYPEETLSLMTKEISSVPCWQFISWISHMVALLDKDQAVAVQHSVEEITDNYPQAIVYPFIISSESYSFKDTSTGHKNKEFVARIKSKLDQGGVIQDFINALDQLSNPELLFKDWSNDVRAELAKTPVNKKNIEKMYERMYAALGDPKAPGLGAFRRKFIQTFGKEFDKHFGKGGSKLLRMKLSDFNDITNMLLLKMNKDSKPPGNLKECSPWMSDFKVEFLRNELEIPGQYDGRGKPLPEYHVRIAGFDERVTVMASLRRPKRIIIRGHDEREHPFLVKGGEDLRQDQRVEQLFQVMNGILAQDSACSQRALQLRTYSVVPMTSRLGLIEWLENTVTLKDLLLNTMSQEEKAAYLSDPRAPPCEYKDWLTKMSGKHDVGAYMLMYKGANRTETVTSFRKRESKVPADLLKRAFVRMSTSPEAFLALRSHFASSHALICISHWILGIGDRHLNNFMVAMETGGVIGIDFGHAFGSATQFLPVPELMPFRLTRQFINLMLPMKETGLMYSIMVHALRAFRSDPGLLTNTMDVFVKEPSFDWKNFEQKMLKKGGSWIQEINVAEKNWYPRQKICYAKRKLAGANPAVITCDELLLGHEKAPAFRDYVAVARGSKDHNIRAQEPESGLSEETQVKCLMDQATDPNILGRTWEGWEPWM

Row | SMILES | IC50 [1, 2] [µM] | IC50 (PI3 Kgamma (PI3 Kg)) [µM] | IC50 [1, 3] [µM]
1 | CCNC(=O)Nc1ccc(-c2nc3c(c(N4CCOC[C@@H]4C)n2)CN(C2CCN(C(=O)OC)CC2)C3)cc1F [Example 122, (S)-methyl 4-(2-(4-(3-ethylureido)-3-fluorophenyl)-4-(3-methylmorpholino)-5H-pyrrolo[3,4-d]pyrimidin-6(7H)-yl)piperidine-1-carboxylate] | > 10 | > 10 | 
2 | C[C@H]1COCCN1c1nc(-c2ccc(NC(N)=O)cc2)nc2c1CN(C)C2 [Example 71, (S)-1-(4-(6-methyl-4-(3-methylmorpholino)-6,7-dihydro-5H-pyrrolo[3,4-d]pyrimidin-2-yl)phenyl)urea] | > 10 | 1 to 10 | 
3 | CCNC(=O)Nc1ccc(-c2nc3c(c(N4CCOC[C@@H]4C)n2)CCN(C)C3)c(F)c1 [Example 110, (S)-1-ethyl-3-(3-fluoro-4-(7-methyl-4-(3-methylmorpholino)-5,6,7,8-tetrahydropyrido[3,4-d]pyrimidin-2-yl)phenyl)urea] | > 10 | > 10 | 
4 | CC(C)C(=O)N1CCc2c(nc(-c3ccc(NC(=O)NC4CC4)cc3)nc2N2CCOC[C@@H]2C)C1 [Example 61, (S)-1-cyclopropyl-3-(4-(7-isobutyryl-4-(3-methylmorpholino)-5,6,7,8-tetrahydropyrido[3,4-d]pyrimidin-2-yl)phenyl)urea] | > 10 | > 10 | > 10
5 | CCOC(=O)N1CCc2c(nc(-c3ccc(NC(=O)NC4CC4)cc3)nc2N2CCOC[C@@H]2C)C1 [Example 78, (S)-ethyl 2-(4-(3-cyclopropylureido)phenyl)-4-(3-methylmorpholino)-5,6-dihydropyrido[3,4-d]pyrimidine-7(8H)-carboxylate] | > 10 | > 10 | 
6 | CCNC(=O)Nc1ccc(-c2nc3c(c(N4CCOCC4)n2)CN(C(=O)C(C)(C)C)C3)cc1 [Example 100, 1-ethyl-3-(4-(4-morpholino-6-pivaloyl-6,7-dihydro-5H-pyrrolo[3,4-d]pyrimidin-2-yl)phenyl)urea] | > 10 | > 10 | 
7 | CCNC(=O)Nc1ccc(-c2nc3c(c(N4CCOC[C@@H]4C)n2)CCN(C(=O)Cc2cccnc2)C3)cc1 [Example 91, (S)-1-ethyl-3-(4-(4-(3-methylmorpholino)-7-(2-(pyridin-3-yl)acetyl)-5,6,7,8-tetrahydropyrido[3,4-d]pyrimidin-2-yl)phenyl)urea] | > 10 | > 10 | 
8 | CCNC(=O)Nc1ccc(-c2nc3c(c(N4CCOC[C@@H]4C)n2)CCN(C(=O)NCC)C3)cc1 [Example 87, (S)—N-ethyl-2-(4-(3-ethylureido)phenyl)-4-(3-methylmorpholino)-5,6-dihydropyrido[3,4-d]pyrimidine-7(8H)-carboxamide] | > 10 | > 10 | 
9 | C[C@H]1COCCN1c1nc(-c2ccc(NC(=O)NC3CC3)cc2)nc2c1CCN(C(=O)C(C)(C)C)C2 [Example 64, (S)-1-cyclopropyl-3-(4-(4-(3-methylmorpholino)-7-pivaloyl-5,6,7,8-tetrahydropyrido[3,4-d]pyrimidin-2-yl)phenyl)urea] | > 10 | > 10 | 
10 | CCNC(=O)Nc1ccc(-c2nc3c(c(N4CCOCC4)n2)CCN(C)C3)cc1 [Example 93, 1-ethyl-3-(4-(7-methyl-4-morpholino-5,6,7,8-tetrahydropyrido[3,4-d]pyrimidin-2-yl)phenyl)urea] | > 10 | > 10 | 
11 | CCNC(=O)Nc1ncc(-c2nc3c(c(N4CCOC[C@@H]4C)n2)CCN(C)C3)s1 [Example 106, (S)-1-ethyl-3-(5-(7-methyl-4-(3-methylmorpholino)-5,6,7,8-tetrahydropyrido[3,4-d]pyrimidin-2-yl)thiazol-2-yl)urea] | > 10 | > 10 | 
12 | CCNC(=O)Nc1ccc(-c2nc3c(c(N4CCOCC4)n2)CCN(C(=O)NCC)C3)cc1 [Example 94, N-ethyl-2-(4-(3-ethylureido)phenyl)-4-morpholino-5,6-dihydropyrido[3,4-d]pyrimidine-7(8H)-carboxamide] | > 10 | > 10 | 
13 | CCOC(=O)N1Cc2nc(-c3ccc(NC(=O)NC4CC4)c(F)c3)nc(N3CCOC[C@@H]3C)c2C1 [Example 105, (S)-ethyl 2-(4-(3-cyclopropylureido)-3-fluorophenyl)-4-(3-methylmorpholino)-5H-pyrrolo[3,4-d]pyrimidine-6(7H)-carboxylate] | > 10 | > 10 | 
14 | CCNC(=O)Nc1ccc(-c2nc3c(c(N4CCOC[C@@H]4C)n2)CCN(C(=O)CO)C3)cc1 [Example 102, (S)-1-ethyl-3-(4-(7-(2-hydroxyacetyl)-4-(3-methylmorpholino)-5,6,7,8-tetrahydropyrido[3,4-d]pyrimidin-2-yl)phenyl)urea] | > 10 | > 10 | 
15 | CCNC(=O)Nc1ccc(-c2nc3c(c(N4CCOC[C@@H]4C)n2)CCN(C(=O)C(C)(C)C)C3)cc1 [Example 58, (S)-1-ethyl-3-(4-(4-(3-methylmorpholino)-7-pivaloyl-5,6,7,8-tetrahydropyrido[3,4-d]pyrimidin-2-yl)phenyl)urea] | > 10 | > 10 | > 10
16 | C[C@H]1COCCN1c1nc(-c2ccc(NC(=O)NC3CC3)cc2)nc2c1CN(CC(F)(F)F)C2 [Example 101, (S)-1-cyclopropyl-3-(4-(4-(3-methylmorpholino)-6-(2,2,2-trifluoroethyl)-6,7-dihydro-5H-pyrrolo[3,4-d]pyrimidin-2-yl)phenyl)urea] | > 10 |  | 
17 | CCNC(=O)Nc1ccc(-c2nc3c(c(N4CCOC[C@@H]4C)n2)CN(C(=O)OCC)C3)cc1 [Example 90, (S)-ethyl 2-(4-(3-ethylureido)phenyl)-4-(3-methylmorpholino)-5H-pyrrolo[3,4-d]pyrimidine-6(7H)-carboxylate] | > 10 | > 10 | 
18 | CCNC(=O)Nc1ccc(-c2nc3c(c(N4CCOC[C@@H]4C)n2)CN(C(=O)OCC)C3)cc1F [Example 103, (S)-ethyl-2-(4-(3-ethylureido)-3-fluorophenyl)-4-(3-methylmorpholino)-5H-pyrrolo[3,4-d]pyrimidine-6(7H)-carboxylate] | > 10 | > 10 | 
19 | CCNC(=O)Nc1ccc(-c2nc3c(c(N4CCOC[C@@H]4C)n2)CN(CC(C)C)C3)cc1 [Example 66, (S)-1-ethyl-3-(4-(6-isobutyl-4-(3-methylmorpholino)-6,7-dihydro-5H-pyrrolo[3,4-d]pyrimidin-2-yl)phenyl)urea] | > 10 | > 10 | 
20 | C[C@H]1COCCN1c1nc(-c2ccc(NC(=O)NC3CC3)cc2)nc2c1CN(C(=O)C1CCOCC1)C2 [Example 129, (S)-1-cyclopropyl-3-(4-(4-(3-methylmorpholino)-6-(tetrahydro-2H-pyran-4-carbonyl)-6,7-dihydro-5H-pyrrolo[3,4-d]pyrimidin-2-yl)phenyl)urea] |  | > 10 | 
21 | CCNC(=O)Nc1ccc(-c2nc3c(c(N4CCOC[C@@H]4C)n2)CCN(C(C)=O)C3)cc1 [Example 59, (S)-1-(4-(7-acetyl-4-(3-methylmorpholino)-5,6,7,8-tetrahydropyrido[3,4-d]pyrimidin-2-yl)phenyl)-3-ethylurea] | > 10 |  | > 10
22 | CCNC(=O)Nc1ccc(-c2nc3c(c(N4CCOC[C@@H]4C)n2)CN(C(=O)OC(C)(C)C)C3)cc1 [Example 1, (S)-tert-butyl 2-(4-(3-ethylureido)phenyl)-4-(3-methylmorpholino)-5H-pyrrolo[3,4-d]pyrimidine-6(7H)-carboxylate] | > 10 |  | > 10
